Laboratory results taken from BindingDB's records for doi:10.1021/acs.jmedchem.7b00951 (Shandong University, 2017).

Columns and labels:
[1] = Antagonist activity at PAR1 in human platelet-rich plasma assessed as reduction in TRAP-stimulated platelet aggregation preincubated for 20 mins followed by TRAP stimulation measured after 5 mins by aggregometric analysis
[2] = Antagonist activity at PAR1 in human platelet-rich plasma assessed as reduction in thrombin-stimulated platelet aggregation preincubated for 3 mins followed by thrombin stimulation measured after 5 mins by aggregometric analysis
[3] = as above; remark: listed apart in the source

| Compound | IC50 [1] [µM] | IC50 [2] [µM] | IC50 [3] [µM] |
| --- | --- | --- | --- |
| CCOC(=O)N[C@@H]1CC[C@@H]2[C@@H](C1)C[C@H]1C(=O)O[C@H](C)[C@H]1[C@H]2C=Cc1ccc(-c2cccc(F)c2)cn1 [Ethyl [(3aR,4aR,8aR,9aS)-9(S)-[(E)-2-[5-(3-fluorophenyl)-2-pyridinyl]ethenyl]dodecahydro-1(R)-methyl-3-oxonaphtho[2,3-c]furan-6(R)-yl]carbamate] | 0.031 | 0.081 | – |
| C[C@H]1CC[C@@H]2C(C)(C)[C@H](O)CC[C@@]2(C)[C@@H]1/C=C/c1ccc(-c2cccc(F)c2)cn1 | 1.6 | – | 0.65 |
